# From ChEMBL document CHEMBL1201862, “PubChem BioAssay data set” (2004)
# Activity calls are given as the source filed them.
# Key:
# [1] = A Cell Based Secondary Assay To Explore Cytotoxicity of Compounds that Sensitize Mycobacterium Tuberculosis to Beta-Lactam Antibiotics.; type: functional
# [2] = molecular target: Cytochrome P450 2C19 (Homo sapiens, UniProt P33261); assay: Cytochrome panel assay with activity outcomes. Panel member name: p450-cyp2c19 Compounds with AC50 equal or less than 10 uM are considered active; type: functional; conditions: read-out: AC50
# Cytochrome P450 2C19, sequence (P33261 whole entry, the tested form may be a part): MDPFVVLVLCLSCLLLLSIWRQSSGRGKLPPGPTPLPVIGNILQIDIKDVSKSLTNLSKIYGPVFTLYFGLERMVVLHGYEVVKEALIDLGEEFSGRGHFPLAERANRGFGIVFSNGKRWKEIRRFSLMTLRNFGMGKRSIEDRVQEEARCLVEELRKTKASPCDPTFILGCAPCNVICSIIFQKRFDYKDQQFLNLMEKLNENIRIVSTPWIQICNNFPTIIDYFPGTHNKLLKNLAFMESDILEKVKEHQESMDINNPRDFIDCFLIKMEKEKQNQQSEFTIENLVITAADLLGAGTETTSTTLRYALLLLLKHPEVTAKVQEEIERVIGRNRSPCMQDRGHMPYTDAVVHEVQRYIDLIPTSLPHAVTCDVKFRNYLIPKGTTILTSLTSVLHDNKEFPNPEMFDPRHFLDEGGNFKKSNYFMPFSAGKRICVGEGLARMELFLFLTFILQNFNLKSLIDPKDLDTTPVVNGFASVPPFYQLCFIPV
# [3] = blockers of HIV-1 ZM109 envelope-driven cell-cell fusion – HeLa effector, CEM target cells, luciferase, cherry-pick, dose response (AID 652058); type: functional, cell-based;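 also: luciferase signal from HIV-1 Env mediated cell-cell fusion of effector and target cells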
# [4] = tested on: SN12K1; assay: cells; type: functional; conditions: Homo sapiens
# [5] = tested on: P388/ADR; assay: cells; type: functional; conditions: Mus musculus
# [6] = molecular target: T1, Caspase-3 (Homo sapiens, UniProt P42574); type: functional;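 also: Dose-response selectivity test against caspase-3 for candidate inhibitors of sentrin-specific proteases (SENPs)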
# T1 sequence (P42574 whole entry): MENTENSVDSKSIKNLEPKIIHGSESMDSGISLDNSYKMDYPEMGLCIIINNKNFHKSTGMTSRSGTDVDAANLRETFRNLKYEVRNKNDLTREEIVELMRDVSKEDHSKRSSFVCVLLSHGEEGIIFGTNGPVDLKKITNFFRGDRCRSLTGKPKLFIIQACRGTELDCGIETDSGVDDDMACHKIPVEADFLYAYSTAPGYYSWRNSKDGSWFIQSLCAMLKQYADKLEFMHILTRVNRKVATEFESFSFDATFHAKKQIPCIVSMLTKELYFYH
# [7] = tested on: Streptococcus sp. 'group A'; assay: Streptococcus pyogenes SK(-)GAS viability under kanamycin – luminescence, BacTiterGlo, confirmation, counter-screen for streptokinase expression inhibitor project, dose response (AID 1900); type: functional, organism-based
# [8] = molecular target: T2, Sentrin-specific protease 8 (Homo sapiens, UniProt Q96LD8); type: functional;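 also: luminescence read-out of SENP8 inhibition, dose-response confirmation following an ultra-high-throughput screen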
# T2 sequence (Q96LD8 whole entry): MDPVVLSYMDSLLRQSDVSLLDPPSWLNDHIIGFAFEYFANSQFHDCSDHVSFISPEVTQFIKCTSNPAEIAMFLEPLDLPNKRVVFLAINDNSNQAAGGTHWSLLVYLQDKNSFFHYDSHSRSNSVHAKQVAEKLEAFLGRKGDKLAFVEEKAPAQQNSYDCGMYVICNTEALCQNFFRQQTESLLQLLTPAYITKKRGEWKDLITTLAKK
# [9] = molecular target: T3, Sentrin-specific protease 7 (Homo sapiens, UniProt Q9BQF6); type: functional;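 also: Luminescence-based dose-response confirmation of ultra-high-throughput screening hits, measuring inhibition of SENP7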
# T3 sequence (Q9BQF6 whole entry): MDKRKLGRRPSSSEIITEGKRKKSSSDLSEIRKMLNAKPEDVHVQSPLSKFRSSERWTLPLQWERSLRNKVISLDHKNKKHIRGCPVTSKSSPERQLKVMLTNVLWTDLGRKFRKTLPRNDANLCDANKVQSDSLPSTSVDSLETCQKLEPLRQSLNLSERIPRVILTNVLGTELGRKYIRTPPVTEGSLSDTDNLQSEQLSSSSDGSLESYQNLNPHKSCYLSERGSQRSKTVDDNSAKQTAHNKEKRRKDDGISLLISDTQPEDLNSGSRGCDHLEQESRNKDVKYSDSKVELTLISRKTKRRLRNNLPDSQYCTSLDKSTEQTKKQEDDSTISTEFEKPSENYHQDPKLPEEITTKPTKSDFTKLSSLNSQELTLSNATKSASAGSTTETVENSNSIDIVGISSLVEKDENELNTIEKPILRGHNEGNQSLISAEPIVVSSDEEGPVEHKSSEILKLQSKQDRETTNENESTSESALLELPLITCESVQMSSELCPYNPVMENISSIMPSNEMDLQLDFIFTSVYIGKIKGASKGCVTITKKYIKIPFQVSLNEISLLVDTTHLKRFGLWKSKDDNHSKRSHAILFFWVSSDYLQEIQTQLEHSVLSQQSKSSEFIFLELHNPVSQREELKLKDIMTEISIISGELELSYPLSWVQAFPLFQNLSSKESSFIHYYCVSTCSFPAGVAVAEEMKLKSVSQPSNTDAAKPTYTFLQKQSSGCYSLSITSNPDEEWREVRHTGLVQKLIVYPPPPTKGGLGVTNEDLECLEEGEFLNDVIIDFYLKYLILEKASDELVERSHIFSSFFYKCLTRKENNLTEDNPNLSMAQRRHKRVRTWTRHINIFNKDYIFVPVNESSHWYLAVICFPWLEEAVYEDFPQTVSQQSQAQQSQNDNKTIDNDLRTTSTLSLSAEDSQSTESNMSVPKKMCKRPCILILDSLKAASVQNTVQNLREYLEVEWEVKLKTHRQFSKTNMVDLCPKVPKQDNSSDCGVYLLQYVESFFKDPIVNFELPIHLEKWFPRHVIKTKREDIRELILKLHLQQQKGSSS
# [10] = molecular target: T4, Streptokinase A (Streptococcus pyogenes serotype M1, UniProt P10520); assay: viability-normalized secreted streptokinase activity reduction – plasminogen activation absorbance, OD405, dose response (AID 1914); type: functional, Streptococcus pyogenes M1 GAS;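 also: secreted streptokinase activity via plasminogen activation per viability signal from cell pellet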
# T4 sequence (P10520 whole entry): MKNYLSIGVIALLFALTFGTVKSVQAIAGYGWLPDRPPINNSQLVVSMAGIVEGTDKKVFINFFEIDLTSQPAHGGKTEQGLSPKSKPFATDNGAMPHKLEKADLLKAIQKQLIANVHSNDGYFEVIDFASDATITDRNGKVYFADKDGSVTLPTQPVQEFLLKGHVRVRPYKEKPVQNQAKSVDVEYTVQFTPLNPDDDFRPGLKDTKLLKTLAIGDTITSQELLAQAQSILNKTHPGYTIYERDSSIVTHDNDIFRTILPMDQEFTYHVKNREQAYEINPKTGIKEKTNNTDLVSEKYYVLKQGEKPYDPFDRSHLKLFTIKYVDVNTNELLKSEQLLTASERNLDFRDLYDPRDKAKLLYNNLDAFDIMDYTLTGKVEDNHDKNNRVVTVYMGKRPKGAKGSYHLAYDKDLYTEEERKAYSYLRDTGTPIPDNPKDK
# [11] = molecular target: T5, Sentrin-specific protease 6 (Homo sapiens, UniProt Q9GZR1); type: functional;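 also: Luminescence-based dose-response confirmatory assay of SENP6 inhibition, following up an ultra-high-throughput screen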
# T5 sequence (Q9GZR1 whole entry): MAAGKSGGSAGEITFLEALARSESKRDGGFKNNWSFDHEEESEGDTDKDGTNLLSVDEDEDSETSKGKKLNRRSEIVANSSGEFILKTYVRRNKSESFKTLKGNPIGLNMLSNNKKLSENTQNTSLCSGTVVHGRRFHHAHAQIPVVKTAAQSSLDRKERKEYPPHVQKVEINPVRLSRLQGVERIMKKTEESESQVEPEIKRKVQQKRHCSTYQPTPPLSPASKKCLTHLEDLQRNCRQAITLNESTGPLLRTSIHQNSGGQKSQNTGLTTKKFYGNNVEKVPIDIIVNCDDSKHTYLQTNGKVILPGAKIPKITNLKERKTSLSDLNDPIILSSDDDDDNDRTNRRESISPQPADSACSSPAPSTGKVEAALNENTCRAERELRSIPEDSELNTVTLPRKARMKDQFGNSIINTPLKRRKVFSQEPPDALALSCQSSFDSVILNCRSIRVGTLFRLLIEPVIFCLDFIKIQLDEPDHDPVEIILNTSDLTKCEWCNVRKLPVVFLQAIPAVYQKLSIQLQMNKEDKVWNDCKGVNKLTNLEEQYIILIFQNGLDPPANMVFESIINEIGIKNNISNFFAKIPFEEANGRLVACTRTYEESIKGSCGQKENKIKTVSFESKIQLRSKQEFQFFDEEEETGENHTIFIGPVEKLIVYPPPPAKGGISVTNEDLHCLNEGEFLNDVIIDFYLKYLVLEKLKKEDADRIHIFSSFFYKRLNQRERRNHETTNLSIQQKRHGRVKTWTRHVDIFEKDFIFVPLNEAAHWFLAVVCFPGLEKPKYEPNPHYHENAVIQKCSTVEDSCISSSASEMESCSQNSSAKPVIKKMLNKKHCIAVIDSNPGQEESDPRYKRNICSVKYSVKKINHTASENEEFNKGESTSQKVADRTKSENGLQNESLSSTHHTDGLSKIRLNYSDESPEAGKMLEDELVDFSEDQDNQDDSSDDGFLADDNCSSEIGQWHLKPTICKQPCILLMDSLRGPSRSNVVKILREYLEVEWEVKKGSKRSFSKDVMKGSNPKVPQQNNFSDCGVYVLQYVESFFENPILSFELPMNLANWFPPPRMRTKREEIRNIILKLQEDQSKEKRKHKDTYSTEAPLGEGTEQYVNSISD
# [12] = tested on: Streptococcus; assay: GAS UMAA2166 growth inhibition – luminescence, BacTiterGlo, counter-screen for streptokinase expression inhibitor project, dose response (AID 1915); type: functional, organism-based;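 also: potency for reduction of bacterial viability or growth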
# [13] = HEK-293T viability loss after treatment – luminescence, T-cell screen hits, cytotoxicity control for TCR NF-kB inhibitor project, dose response (AID 489026); type: functional, cell-based;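 also: cells exposed to compound about 14 hours before the viability readout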
# [14] = viability of HCT116 lacking mutant beta-catenin – cell-based, human colon tumor, dose response (AID 1045); type: functional;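 also: HCT116 colon tumor cells with beta catenin knocked out; cells exposed to compound for 60 hours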
# [15] = viability of PTEN-deleted HCT116 cells – cell-based, HCT116 PTEN knockout, dose response (AID 1047); type: functional;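 also: HCT116 colon tumor cells with PTEN knocked out; cells exposed to compound for 60 hours before readout; potency for loss of cell viability measured by luminescence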
smiles,measurement,setting,value
Cc1ccc(-n2c(SCC(=O)NCc3ccco3)nc3sc4c(c3c2=O)CC(C)(C)SC4)cc1,CC50,[1],> 40 µM (active)
same,AC50,[2],8.91 µM (inconclusive)
C[C@@H]1CN([C@@H](C)CO)C(=O)c2cccc(NC(=O)c3ccc(-c4nccs4)cc3)c2O[C@H]1CN(C)CC1CC1,AC50,[3],40.2 µM (active)
C=C1C(O)C2(O)OCC34C(CC5C(C)=CC(=O)C(O)C5(C)C23)OC(=O)C(OC(=O)C/C=C(\C)CCCCC)C14 (configuration not stated),GI50,[4],0.0125 µM (active)
same,GI50,[5],0.0933 µM (active)
CN(C)c1ccc(/C=N/Nc2nc3ccccc3o2)cc1,IC50,[6],2.05 µM (active)
same,EC50,[7],> 150 µM (not active)
same,IC50,[8],1.74 µM (active)
same,IC50,[9],< 1.55 µM (active)
same,EC50,[10],> 150 µM (not active)
same,IC50,[11],1.72 µM (active)
same,EC50,[12],> 150 µM (not active)
Cc1ccc(C(=O)c2cc3ccccc3o2)cc1C,IC50,[6],11.2 µM (active)
same,IC50,[8],10.6 µM (active)
same,IC50,[9],3.18 µM (active)
same,IC50,[11],6.41 µM (active)
CC1CCCN(S(=O)(=O)c2ccc(C(=O)Nc3nnc(-c4ccncc4)o3)cc2)C1 (configuration not stated),CC50,[1],12.7 µM (active)
CCCC[C@@H](C)C[C@@H](C)C(=O)N(C)[C@@H](CC(C)C)C(=O)N[C@H](C(=O)N(C)[C@H](C(=O)N1C[C@@H](O)C[C@H]1C(=O)N1C(=O)C=C[C@@H]1C)C(C)C)C(C)OC(C)=O (some centres not stated),IC50,[13],18.6 µM (active)
COCc1nnc(NC(=O)c2ccc(S(=O)(=O)N(C)c3ccccc3)cc2)o1,CC50,[1],18.6 µM (active)
same,EC50,[14],18.3 µM (active)
same,EC50,[15],20.6 µM (active)
CCNC(=O)CCn1nc(-c2ccc(Cl)cc2)c2ccccc2c1=O,CC50,[1],> 40 µM (active)
